How the values were obtained:
Test in all cases: relative viability (nuclei count vs DMSO), 5 days (fraction); higher = more cells survive
[1] = compound: Cc1ccc(C(=O)N(CCCN)[C@@H](c2nc3cc(Cl)ccc3c(=O)n2Cc2ccccc2)C(C)C)cc1 [Ispinesib] + C[C@]1(O)C[C@@H](c2nc(-c3ccc4ccc(-c5ccccc5)nc4c3)c3c(N)nccn32)C1 [Linsitinib] (partner 1 µM)
How it was run: (§1)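 One day after seeding in 1536-well plates, lung cancer cell lines were dosed by pin tool. Dosing was either single-drug or a fixed anchor-drug dose plus five library-drug doses (not always all listed) in √10 steps. After 5 days, nuclei were stained in one fix-and-stain step and counted on 4× images, and relative viability is the nuclei count of treated wells over that of vehicle wells, given as the median of duplicate plates.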

[2] = compound: C[C@]1(O)C[C@@H](c2nc(-c3ccc4ccc(-c5ccccc5)nc4c3)c3c(N)nccn32)C1 [Linsitinib] + COc1cc2c(Oc3ccc(NC(=O)C4(C(=O)Nc5ccc(F)cc5)CC4)cc3F)ccnc2cc1OCCCN1CCOCC1 [Foretinib] (partner 0.25 µM)
How it was run: as §1

[3] = compound: C[C@]1(O)C[C@@H](c2nc(-c3ccc4ccc(-c5ccccc5)nc4c3)c3c(N)nccn32)C1 [Linsitinib] + CC1(C)CCC(c2ccc(Cl)cc2)=C(CN2CCN(c3ccc(C(=O)NS(=O)(=O)c4ccc(N[C@H](CCN5CCOCC5)CSc5ccccc5)c(S(=O)(=O)C(F)(F)F)c4)cc3)CC2)C1 [Navitoclax] (partner 0.5 µM)
How it was run: as §1

[4] = compound: Cc1ccc(C(=O)N(CCCN)[C@@H](c2nc3cc(Cl)ccc3c(=O)n2Cc2ccccc2)C(C)C)cc1 [Ispinesib] + Nc1ncn([C@H]2C[C@H](O)[C@@H](CO)O2)c(=O)n1 [Decitabine] (partner 2 µM)
How it was run: as §1

Row | Cell Line | relative viability ([1]; first compound 0.001 µM) | relative viability ([1]; first compound 0.003162 µM) | relative viability ([1]; first compound 0.01 µM) | relative viability ([1]; first compound 0.03162 µM) | relative viability ([1]; first compound 0.1 µM) | relative viability ([2]; first compound 0.01 µM) | relative viability ([2]; first compound 0.03162 µM) | relative viability ([2]; first compound 0.1 µM) | relative viability ([2]; first compound 0.3162 µM) | relative viability ([2]; first compound 1 µM) | relative viability ([3]; first compound 0.01 µM) | relative viability ([3]; first compound 0.03162 µM) | relative viability ([3]; first compound 0.1 µM) | relative viability ([3]; first compound 0.3162 µM) | relative viability ([3]; first compound 1 µM) | relative viability ([4]; first compound 0.001 µM) | relative viability ([4]; first compound 0.003162 µM) | relative viability ([4]; first compound 0.01 µM) | relative viability ([4]; first compound 0.03162 µM) | relative viability ([4]; first compound 0.1 µM)
1 | NCI-H1395 | 1.1 | 1.04 | 0.966 | 0.407 | 0.436 | 0.98 | 1.01 | 1 | 0.957 | 0.998 | 1.14 | 0.904 | 1.47 | 1 | 1.15 | 0.734 | 0.746 | 0.577 | 0.467 | 0.412
2 | NCI-H23 | 0.568 | 0.559 | 0.707 | 0.618 | 0.28 | 1.04 | 1.06 | 0.924 | 0.949 | 1 | 0.811 | 0.854 | 0.761 | 0.581 | 0.652 | 0.27 | 0.326 | 0.304 | 0.309 | 0.213
3 | LOU-NH91 | 0.875 | 0.908 | 0.887 | 0.695 | 0.677 | 0.953 | 0.939 | 0.879 | 0.926 | 0.842 | 0.786 | 0.651 | 0.707 | 0.686 | 0.678 | 0.795 | 0.852 | 0.858 | 0.786 | 0.342
4 | NCI-H2009 | 1.28 | 1.18 | 1.29 | 0.957 | 0.475 | 1.25 | 1.18 | 1.26 |  | 1.24 | 1.15 | 1.24 | 1.22 | 1.01 | 1.2 | 0.447 | 0.365 | 0.383 | 0.366 | 0.244
5 | NCI-H2126 | 0.732 | 0.739 | 0.749 | 0.701 | 0.775 | 1.11 | 1.28 | 1.05 | 1.06 | 1.06 | 0.95 | 0.808 | 0.945 | 0.925 | 0.878 | 0.541 | 0.536 | 0.57 | 0.551 | 0.559
6 | NCI-H1437 | 1.12 | 1.28 | 1.54 | 0.995 | 0.303 | 1.18 | 1.11 | 1.25 | 0.822 | 1.25 | 1.03 | 0.994 | 1.1 | 1.01 | 1.02 | 0.552 | 0.605 | 0.677 | 0.652 | 0.228
7 | SK-LU-1 | 1.15 | 1.32 | 1.43 | 0.932 | 0.382 | 0.813 |  | 0.804 | 0.712 | 0.72 | 0.903 | 0.777 | 0.793 |  | 0.774 | 0.605 | 0.62 | 0.608 | 0.57 | 0.361
8 | NCI-H838 | 1.09 | 1.17 | 1.29 | 0.92 | 0.256 | 0.996 | 0.855 | 0.894 |  | 0.716 | 1.14 | 1.12 | 1.21 | 0.875 | 0.986 | 0.457 | 0.45 | 0.46 | 0.236 | 0.181
9 | NCI-H1755 | 1.03 | 1.1 | 1.14 | 0.906 | 0.422 | 0.864 | 0.892 | 0.956 | 0.865 | 0.8 | 0.974 | 1.04 | 0.986 | 0.839 | 0.905 | 0.704 | 0.771 | 0.758 | 0.75 | 0.72
10 | NCI-H1915 | 1.13 | 1.24 | 1.08 | 1.12 | 1.03 | 1.13 | 1.08 | 1.08 | 0.986 | 0.923 | 0.813 | 0.811 | 0.81 | 0.681 | 0.781 | 0.233 | 0.281 | 0.268 | 0.291 | 0.229
11 | NCI-H2347 | 1.01 | 1.04 | 1.13 | 0.805 | 0.913 | 0.838 | 0.874 | 0.741 | 0.892 | 0.967 | 0.731 | 0.915 | 0.717 | 0.533 | 0.754 | 0.625 | 0.618 | 0.597 | 0.578 | 0.589
12 | HARA | 0.993 | 0.85 | 1.32 | 1.07 | 0.207 | 0.91 | 0.938 | 0.758 |  | 0.932 | 1.09 | 1.17 | 1.13 | 0.788 | 1.15 | 0.514 | 0.467 | 0.573 | 0.709 | 0.314
13 | NCI-H2085 | 0.954 | 1.01 | 0.904 | 0.777 | 0.605 | 0.883 | 0.889 | 0.931 | 0.891 | 0.898 | 1.03 | 1.11 | 1.22 | 1.07 | 1.2 | 0.487 | 0.524 | 0.581 | 0.577 | 0.556
14 | NCI-H727 |  | 0.303 | 0.235 | 0.244 | 0.223 | 0.836 | 0.866 | 0.647 | 0.632 | 0.611 | 0.406 | 0.539 | 0.376 | 0.19 | 0.184 | 0.651 | 0.864 |  | 0.737 | 0.761
15 | NCI-H1993 | 0.631 | 0.724 | 0.749 | 0.716 | 0.675 | 0.753 | 0.724 | 0.653 | 0.759 | 0.657 | 0.937 | 0.902 | 0.839 | 1.01 | 0.6 | 0.679 | 0.667 | 0.555 | 0.678 | 0.479
16 | A549 | 0.628 | 0.551 | 0.769 | 0.434 | 0.0756 | 0.97 | 0.953 | 0.999 | 0.695 | 0.875 | 1.21 | 1.15 | 1.1 | 1.01 | 0.895 | 0.149 | 0.254 | 0.326 | 0.315 | 0.196

Reference: the supplement of paper PMC10307832
